# Experimental data as given in patent publication US9045401B2, “Methods for treating or ameliorating a melanoma and killing melanoma cells” (THE REGENTS OF THE UNIVERSITY OF CALIFORNIA, priority 2007, dated 2015).
# Test system: Jurkat cells
# Experiment: apoptosis of Jurkat cells by FACS analysis of DNA content
# Assay type: cell-based
# Conditions: 50 or 300 nM, 6 hours
# Protocol: FIG. 28(B): A549 cells were fixed and costained using antibodies directed against ceramide (red channel) (Bars in A/B=[…]). Arrows indicate regions of “blebbing.” The nuclear compartment was visualized using DAPI to stain DNA (blue channel). The assessments were performed two hours after treatment with 300 nM ScA. FIG. 28(C): Immunoblot analysis of Jurkat cells was performed following treatment with 100 nM ScA. 25 μg of cell lysates was probed for caspases 8, 3 and 9 and for PARP and actin (loading control) as indicated. FIG. 28(D): Caspase 8 deficient (Casp 8), FADD deficient (FADD −) or parental Jurkat cells (Jurkat) were incubated with 50 or 300 nM for 6 hours and analyzed for the presence of apoptotic cells via FACs analysis of DNA content. Results shown are the mean and standard error of triplicate determinations. […] Viability was measured by XTT assay after 72 hours, and normalized to controls not treated with drug. FIG. 28(F): similarly, the viability of neuroblastoma cultures deficient in caspase expression, or reconstituted for caspase 8 expression, was determined as for the A549 cells above. […]
# FACS analysis Cell viability was analyzed by flow cytometry following propidium iodide (PI) staining, as described elsewhere (37). […] The extent of apoptosis was determined by plotting PI fluorescence versus the forward scatter parameter, using CELL QUEST™ software.
compound,measurement,setting,value
"C=CC/C=C/N(C)C(=O)CCCCCCCC/C=C/[C@H](CSSC[C@@H](/C=C/CCCCCCCCC(=O)N(C)/C=C/CC=C)NC(C)=O)NC(C)=O [somocystinamide A, Somocystinamide A]",ScA-mediated killing,Jurkat cells lacking FADD,protected from ScA-mediated killing
same,apoptosis,caspase 8-deficient Jurkat cells compared to wild type,dramatically decreased
